Data: patent US12472226B2, “Cell-permeable peptide” (priority 2019, dated 2025)
Non-standard residues stand in square brackets, D forms with d. No end group written: not given here. *: point of attachment. FITC = O=C1OC2(c3ccc(O)cc3Oc3cc(O)ccc32)c2ccc(NC(=S)*)cc21; Ahx = NCCCCCC(=O)O

Key:
[1] = test system: Hos cells; assay: Test of inducing cell-death in vitro (Calcein-AM/PI dead cell rate); type: cell-based, human; settings: 50 μg/mL, 9 days
From the text: (§1) Human fibrosarcoma-derived HT-1080 cells (HT-1080 cells, JCRB cell bank) were used as cancer cells in the test for monitoring changes in mitochondrial membrane potential. HT-1080 cells, human osteosarcoma cell line Hos cells (Hos cells, JCRB cell bank), human histiocytic lymphoma/macrophage U937 cells (U937 cells, JCRB cell bank), human myeloid leukemia HL-60 cells (HL-60 cells, JCRB cell bank), acute monocytic leukemia THP-1 cells (THP-1 cells, JCRB cell bank), human alveolar basal epithelial adenocarcinoma cell A549 cells (A549 cells, Cell Resource Center for Biomedical Research, Institute of Development, Aging and Cancer, Tohoku University), human pancreatic carcinoma cells (MIA Paca 2 cells, Cell Resource Center for Biomedical Research, Institute of Development, Aging and Cancer, Tohoku University) and well differentiated human liver carcinoma-derived cell line HuH7 cells (HuH7 cells, Cell Resource Center for Biomedical Research, Institute of Development, Aging and Cancer, Tohoku University) were used as cancer cells in an in vitro cell-death induction test of cancer cells and a nuclear transport test of Example 2. Normal human gingival fibroblast cells Gin-1 (Gin-1 cells, DS Pharma Biomedical) were used as a control. The above-described cells were each inoculated into a 96-well culture plate (Falcon) at 5,000 cells/[…] and subjected to the following tests.
(§2) The peptide of SEQ ID NO: 1 labeled with FITC (Example 2) was used for the test of inducing cell-death in vitro in cancer cells. It was prepared the test example to which 100 μL of Example 2 and further 10% FBS were added and cultured for 9 days under conditions of 200 μL of serum-supplemented medium (Alpha modification of Eagle's MEM (α-MEM) (Thermo Fisher Scientific)+10% FBS). Furthermore, it was also produced the test example that was cultured for 21 days with the whole amount of Example 2-supplemented medium replaced every 7 days. As a control, the cells were cultured in a serum-supplemented medium (α-MEM+10% FBS) without addition and were used. A supernatant was removed after the completion of the culture. The cells were washed once with PBS and stained in PBS to which a fluorescent dye for living cell staining Calcein-AM (DOJINDO LABORATORIES) (final concentration: 0.1 μg/mL) and a fluorescent dye for dead cell staining Propidium Iodide (PI) (DOJINDO LABORATORIES) (final concentration: 0.3 μg/mL) were added, at 37° C. in a 5% CO2 cell incubator for 30 minutes. The living cells and dead cells were separately stained with Calcein-AM and PI, respectively and imaged with the confocal laser scanning microscope LSM800. Next, the dead cell rate relative to the number of total cells was analyzed using ImageJ.
(§3) The results are represented by the average value of the dead cell rate (the number red cells stained with IP/the number of total cells×100(%))±standard deviation (SD). In FIG. 2A, the vertical axis represents the rate of cell death when each cell was cultured with Example 2 (50 μg/mL) for 9 days and the horizontal axis represents various types of cells. The increase in the dead cell rate of the Gin-1 cells was not observed.

[2] = test system: THP-1 cells; assay: as above; type: cell-based, human; settings: 50 μg/mL, 9 days
From the text: as §1, §2, §3

[3] = test system: HL-60 cells; assay: as above; type: cell-based, human; settings: 50 μg/mL, 9 days
From the text: as §1, §2, §3

[4] = test system: Gin-1 cells; assay: as above; type: cell-based, human; settings: 50 μg/mL, 9 days
From the text: as §1, §2, §3

[5] = test system: U937 cells; assay: as above; type: cell-based, human; settings: 50 μg/mL, 9 days
From the text: as §1, §2, §3

[6] = test system: Hos cells; assay: Test on nuclear transport (confocal Z scan, DAPI); type: cell-based, human; settings: 50 μg/mL, 9 days
From the text: as §1
(§4) Further, 50 μg/mL of Example 2 was added to the Gin-1 or above cancer cells. The cells were cultured for 9 days and scanned with Z scan technique using the confocal laser scanning microscope LSM800 after dyed with DAPI. FIG. 5A is each photograph of XY, XZ and YZ cross sections that was merged with Example 2 (green) and DAPI (blue) in the Gin-1 or above-described cancer cells. […] The color of the images merged with the Example 2 and DAPI dye took on light blue in the U937, H1-60, THP-1 and Hos cells.

[7] = test system: THP-1 cells; assay: Test on nuclear transport (confocal Z scan, DAPI); type: cell-based, human; settings: 50 μg/mL, 9 days
From the text: as §1, §4

[8] = test system: HL-60 cells; assay: Test on nuclear transport (confocal Z scan, DAPI); type: cell-based, human; settings: H1-60 cells, 50 μg/mL, 9 days
From the text: as §1, §4

[9] = test system: Gin-1 cells; assay: Test on nuclear transport (confocal Z scan, DAPI); type: cell-based, human; settings: 50 μg/mL, 9 days
From the text: as §1, §4

[10] = test system: U937 cells; assay: Test on nuclear transport (confocal Z scan, DAPI); type: cell-based, human; settings: 50 μg/mL, 9 days
From the text: as §1, §4

[11] = test system: A549 cells; assay: Test of inducing cell-death in vitro (Calcein-AM/PI dead cell rate); type: cell-based, human; settings: for dead cell rate: 50 μg/mL
From the text: as §1, §2
(§5) The amount of administration of Example 2 was adjusted to 50 μg/mL and was used for 9-, 16- or 23-day administration test in the A549, MIA Paca2 or HuH7 cells by the same method as in Test Example 2A above. The cell staining and subsequent analyses of the dead cell rate relative to the number of total cells were performed in the same manner as Test Example 2A above.

[12] = test system: HuH7 cells; assay: as above; type: cell-based, human
From the text: as §1, §2, §5

[13] = test system: MIA Paca2 cells; assay: as above; type: cell-based, human; settings: for dead cell rate: 50 μg/mL
From the text: as §1, §2, §5

[14] = target: T1, CD13 on Gin-1 cells (Homo sapiens, UniProt P15144); assay: Binding test to cell membrane (confocal, CD13 co-staining); type: cell-based; settings: 1 μg/100 μL, 4° C., 1 hour
T1 construct: endogenous in cells; host or cells: Gin-1 cells
Experimental: (§6) A PE-labeled human CD13 antibody (Clone: WM-15 Biolegend) ([…]) and Example 2 (1 μg/100 μL) were added to each of the cells (500,000 cells/[…]), and the cells were stained at 4° C. for 1 hour. After the cells were washed with PBS, CD13 expression of each cell and binding site of Example 2 were observed as the standard of the fluorescence intensity of the HT-1080 cells using the confocal laser scanning microscope LSM800. The expression of CD13 (red) was strongest and the luminescence of Example 2 (green) was also strong in the HT-1080 and Gin-1 cells. […] Further, the same phenomenon about CD13 expression was also recognized in the U937, HL-60, THP-1 and Hos cells (not shown).

[15] = target: T2, CD13 on HT-1080 cells (Homo sapiens, UniProt P15144); assay: as above; type: cell-based; settings: 1 μg/100 μL, 4° C., 1 hour
T2 construct: endogenous in cells; host or cells: HT-1080 cells
Experimental: as §6

T2 sequence (P15144 whole entry): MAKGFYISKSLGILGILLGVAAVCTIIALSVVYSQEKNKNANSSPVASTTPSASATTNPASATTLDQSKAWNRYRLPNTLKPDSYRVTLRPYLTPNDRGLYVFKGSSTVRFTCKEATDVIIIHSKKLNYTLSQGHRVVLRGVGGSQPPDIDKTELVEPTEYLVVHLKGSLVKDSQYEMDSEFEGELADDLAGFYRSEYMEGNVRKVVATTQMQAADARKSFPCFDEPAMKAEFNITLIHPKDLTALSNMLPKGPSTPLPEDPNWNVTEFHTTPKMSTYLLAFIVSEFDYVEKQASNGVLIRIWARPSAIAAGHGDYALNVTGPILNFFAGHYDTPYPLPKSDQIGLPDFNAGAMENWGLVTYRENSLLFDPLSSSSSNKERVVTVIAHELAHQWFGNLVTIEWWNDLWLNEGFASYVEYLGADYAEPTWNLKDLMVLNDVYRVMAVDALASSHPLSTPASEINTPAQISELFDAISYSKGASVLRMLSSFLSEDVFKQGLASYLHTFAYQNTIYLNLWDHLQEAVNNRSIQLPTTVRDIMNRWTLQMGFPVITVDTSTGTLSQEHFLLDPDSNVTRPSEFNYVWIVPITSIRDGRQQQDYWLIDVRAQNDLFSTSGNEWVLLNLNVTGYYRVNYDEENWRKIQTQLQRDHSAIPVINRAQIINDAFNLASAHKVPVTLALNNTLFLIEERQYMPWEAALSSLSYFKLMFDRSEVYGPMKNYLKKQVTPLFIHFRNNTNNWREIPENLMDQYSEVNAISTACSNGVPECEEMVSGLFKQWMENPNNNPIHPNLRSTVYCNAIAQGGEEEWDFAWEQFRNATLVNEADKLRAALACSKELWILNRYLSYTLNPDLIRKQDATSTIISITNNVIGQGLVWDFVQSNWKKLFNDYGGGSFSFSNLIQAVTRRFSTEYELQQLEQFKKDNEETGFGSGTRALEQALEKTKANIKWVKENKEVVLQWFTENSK
T1 sequence (P15144 whole entry): as above

**Q.** How did the “increase in the dead cell rate vs control” value (from here on “increase”) [1] turn out when “Example 2: peptide of SEQ ID NO: 1 labeled with FITC, bound via an Ahx linker at the N-terminus ({FITC}-[Ahx]KDNRGNLLQCVCTGNGRGEWKC; cysteine pairing not given here)” was run?
**A.** significant difference at the level of 1%

**Q.** What about the “increase” value [2] of the same substance?
**A.** significant difference at the level of 5%

**Q.** And the “increase” value [3]?
**A.** significant difference at the level of 1%

**Q.** What about the “increase” value [4] of the same substance?
**A.** not observed

**Q.** And the “increase” value [5]?
**A.** significant difference at the level of 1%

**Q.** What about the intracellular localization [6] of the same substance?
**A.** transfer to a nucleus and bind to a chromosome DNA

**Q.** What about the intracellular localization [7] of the same substance?
**A.** transfer to a nucleus and bind to a chromosome DNA

**Q.** And the intracellular localization [8]?
**A.** transfer to a nucleus and bind to a chromosome DNA

**Q.** And the intracellular localization [9]?
**A.** remain still in the cytoplasm

**Q.** What about the intracellular localization [10] of the same substance?
**A.** transfer to a nucleus and bind to a chromosome DNA

**Q.** And the “increase” value ([11]; 50 μg/mL, 9, 16 or 23 days)?
**A.** significant difference was recognized at the level of 1%

**Q.** What about the dead cell rate ([11]; day 9) of the same substance?
**A.** ~50%

**Q.** And the dead cell rate ([11]; day 16)?
**A.** ~60%

**Q.** And the dead cell rate ([11]; day 21)?
**A.** ≥ 80%

**Q.** And the “effect of administration (dead cell rate) on day 9 compared with later days” value ([12]; 50 μg/mL)?
**A.** substantially same as that of days 16 and 23

**Q.** What about the “increase” value ([12]; 50 μg/mL, 9, 16 or 23 days) of the same substance?
**A.** significant difference was recognized at the level of 1%

**Q.** And the “increase” value ([13]; 50 μg/mL, 9, 16 or 23 days)?
**A.** significant difference was recognized at the level of 1%

**Q.** And the dead cell rate ([13]; day 9)?
**A.** about 10%

**Q.** What about the dead cell rate ([13]; day 16) of the same substance?
**A.** ~50%

**Q.** And the dead cell rate ([13]; day 23)?
**A.** about 80%

**Q.** And the “colocalization with CD13 (overlay images)” value [14]?
**A.** colocalized

**Q.** And the “luminescence of the peptide (green) on cells” value [14]?
**A.** strong

**Q.** What about the “colocalization with CD13 (overlay images)” value [15] of the same substance?
**A.** colocalized

**Q.** What about the “luminescence of the peptide (green) on cells” value [15] of the same substance?
**A.** strong
